Patent publication US8178554B2, “Heterocyclic compounds, their preparation and their use as medicaments, in particular as anti-bacterial agents” (priority 2000, dated 2012)

What was measured:
Assay type in all cases: cell-based
E. coli = assay: In vitro activity, dilution in liquid medium, M.I.C. on E. coli 250HT11; settings: code 250HT11, incubation twenty-four hours at 37° C.
Experimental: (§1) In vitro activity, method of dilution in liquid medium
(§2) A series of tubes are prepared in which the same quantity of sterile nutritive medium is distributed. Increasing quantities of the product to be studied are distributed into each tube, then each tube is sown with a bacterial strain. After incubation for twenty-four hours in a heating chamber at 37° C., the growth inhibition is evaluated by transillumination, which allows the minimal inhibitory concentrations (M.I.C.) to be determined, expressed in μg/cml.

S. Pyogenes A561 = assay: In vitro activity, dilution in liquid medium, M.I.C. on S. Pyogenes A561; settings: S. Pyogenes A561, code 02A1UC1, incubation twenty-four hours at 37° C.
Experimental: as §1, §2

E. coli DC2 (permeable) = assay: In vitro activity, dilution in liquid medium, M.I.C. on E. coli DC2 (permeable); settings: code 250HT6, incubation twenty-four hours at 37° C.
Experimental: as §1, §2

S. aureus Exp 54146 = assay: In vitro activity, dilution in liquid medium, M.I.C. on S. aureus Exp 54146; settings: S. aureus Exp 54146, code 011UC4, incubation twenty-four hours at 37° C.
Experimental: as §1, §2

E. coli (hyperpermeable) = assay: In vitro activity, dilution in liquid medium, M.I.C. on E. coli (hyperpermeable); settings: code 250IP5, incubation twenty-four hours at 37° C.
Experimental: as §1, §2

S. aureus SG511 = assay: In vitro activity, dilution in liquid medium, M.I.C. on S. aureus SG511; settings: S. aureus SG511, code 011 HT3, incubation twenty-four hours at 37° C.
Experimental: as §1, §2

SMILES | M.I.C. (E. coli) [µg/mL] | M.I.C. (S. Pyogenes A561) [µg/mL] | M.I.C. (E. coli DC2 (permeable)) [µg/mL] | M.I.C. (S. aureus Exp 54146) [µg/mL] | M.I.C. (E. coli (hyperpermeable)) [µg/mL] | M.I.C. (S. aureus SG511) [µg/mL]
NC(=O)CNC(=O)[C@H]1CC[C@@H]2CN1C(=O)N2OS(=O)(=O)[O-].[Na+] (relative stereo) [Test A, Sodium salt of trans-N-(2-amino-2-oxoethyl)-7-oxo-6-(sulphooxy)-1,6-diazabicyclo[3,2,1]octane-2-carboxamide] | 160 | 160 | 80 | >160 | 20 | >160
[NH-]C(=O)[C@H]1CC[C@@H]2CN1C(=O)N2OS(=O)(=O)[O-].[Na+].[Na+] (relative stereo) [Test B, Sodium salt of trans-7-oxo-6-(sulphooxy)-1,6-diazabicyclo[3,2,1]octane-2-carboxamide] | 80 | >160 | 40 | >160 | 10 | >160
O=C(NCc1cccnc1)[C@H]1CC[C@@H]2CN1C(=O)N2OS(=O)(=O)[O-].[Na+] (relative stereo) [Test C, Sodium salt of trans-7-oxo-N-(3-pyridinylmethyl)-6-(sulphooxy)-1,6-diazabicyclo[3,2,1] octane-2-carboxamide] | 20 | >80 | 20 | >80 | 5 | >80
O=C(NCc1ccncc1)[C@H]1CC[C@@H]2CN1C(=O)N2OS(=O)(=O)[O-].[Na+] (relative stereo) [Test D, Sodium salt of trans-7-oxo-N-[(4-pyridinyl)methyl]-6-(sulphooxy)-1,6-diazabicyclo[3,2,1] octane-2-carboxamide] | 20 | >80 | 20 | >80 | 2.5 | >80
O=C(NCc1ccccc1)[C@H]1CC[C@@H]2CN1C(=O)N2OS(=O)(=O)[O-].[Na+] (relative stereo) [Test E, Sodium salt of trans-7-oxo-N-(phenylmethyl)-6-(sulphooxy)-1,6-diazabicyclo[3,2,1]octane-2-carboxamide] | >80 | 1.2 | >80 | 5 | 20 | 5
O=C(OCc1ccccc1)[C@H]1CC[C@@H]2CN1C(=O)N2OS(=O)(=O)[O-].[Na+] (relative stereo) [Test F, Sodium salt of phenylmethyl trans-7-oxo-6-(sulphooxy)-1,6-diazabicyclo[3,2,1]octane-2-carboxylate] |  |  |  | 160 |  | 160
